# Measurements as given in patent US20050239656A1, “Pyridine compounds or salts thereof and herbicides containing the same” (priority 2002, published 2005).
# System: rice
# Experiment: Test Example 1: foliage treatment, upland pot test
# Type: in vivo, Oryza sativa L.
# Details: crop, active ingredient 500 g/ha, observed 18th to 23rd day, 0 = non-treated, 100 = complete kill
# Outline: (§1)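 Upland pot test, foliar. Soybean 0.1–0.4 / wheat 1.3–2.4 / rice 1.2–2.6 / barnyardgrass 1.3–2.8 leaf stage at spraying; 500 L/ha carrier, 0.1% (v/v) spreader. Visual % control, 0 untreated to 100 dead, days 18–23.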
row,SMILES,Growth controlling degree (%) Rice
1,COc1ccc(C=CC(=O)N(C)C(c2cnccc2C(F)(F)F)C(C)C)cc1 (centres unmarked) [I-182],20%

# System: prickly sida
# Experiment: Test Example 1: foliage treatment, upland pot test
# Type: in vivo, Sida spinosa L.
# Details: active ingredient 500 g/ha, observed 18th to 23rd day, 0 = non-treated, 100 = complete kill
row,SMILES,Growth controlling degree (%) Prickly sida
1,COc1ccc(C=CC(=O)N(C)C(c2cnccc2C(F)(F)F)C(C)C)cc1 (centres unmarked) [I-182],70%

# System: corn
# Experiment: Test Example 1: foliage treatment, upland pot test
# Type: in vivo, Zea mays L.
# Details: crop, active ingredient 500 g/ha, observed 18th to 23rd day, 0 = non-treated, 100 = complete kill
# Outline: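 In this upland pot foliage test, corn plants at 2.1 to 3.2 leaf stages were sprayed by a small size sprayer. The spray was a conventionally formulated wettable powder or emulsifiable concentrate weighed to a set active ingredient amount, diluted in water at 500 L/ha, plus 0.1% (v/v) agricultural spreader. Visual assessment on days 18 to 23 gave growth controlling degree (%), where 0 equals untreated and 100 means complete kill.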
row,SMILES,Growth controlling degree (%) Corn
1,COc1ccc(C=CC(=O)N(C)C(c2cnccc2C(F)(F)F)C(C)C)cc1 (centres unmarked) [I-182],60%

# System: wheat
# Experiment: Test Example 1: foliage treatment, upland pot test
# Type: in vivo, Triticum spp.
# Details: crop, active ingredient 500 g/ha, observed 18th to 23rd day, 0 = non-treated, 100 = complete kill
# Description: Upland field soil was put into a 1/170,000 ha pot, and seed of various plants were sown. Then, when the plants reached predetermined leaf stages ((1) barnyardgrass: 1.3 to 2.8 leaf stages, (2) crabgrass: 1.0 to 2.8 leaf stages, (3) green foxtail: 1.3 to 2.6 leaf stages, (4) redroot pigweed: 0.1 to 1.2 leaf stages, (5) prickly sida: 0.1 to 1.2 leaf stages, (6) velvetleaf: 0.1 to 1.2 leaf stages, (7) tall morningglory: 0.1 to 1.5 leaf stages, (8) rice: 1.2 to 2.6 leaf stages, (9) wheat: 1.3 to 2.4 leaf stages, (10) corn, 2.1 to 3.2 leaf stages, (11) soybean: 0.1 to 0.4 leaf stage), a wettable powder or emulsifiable concentrate having the compound of the present invention formulated in accordance with a usual formulation method, was weighed so that the active ingredient would be a predetermined amount, and diluted with water in an amount of 500 L/ha. To the diluted solution, 0.1% (v/v) of agricultural spreader was added. The herbicide thus adjusted was applied by a small size sprayer for foliage treatment. On the 18th to 23rd days after the application of the herbicide, the growth of the respective plants was visually observed, and the herbicidal effects were evaluated by the growth controlling degrees (%) ranging from 0 (equivalent to the non-treated plot) to 100 (complete kill), whereby the results shown in Table 3, were obtained.
row,SMILES,Growth controlling degree (%) wheat
1,COc1ccc(C=CC(=O)N(C)C(c2cnccc2C(F)(F)F)C(C)C)cc1 (centres unmarked) [I-182],10%

# System: crabgrass
# Experiment: Test Example 1: foliage treatment, upland pot test
# Type: in vivo, Digitaria sanguinalis L.
# Details: active ingredient 500 g/ha, observed 18th to 23rd day, 0 = non-treated, 100 = complete kill
row,SMILES,Growth controlling degree (%) Crabgrass
1,COc1ccc(C=CC(=O)N(C)C(c2cnccc2C(F)(F)F)C(C)C)cc1 (centres unmarked) [I-182],80%

# System: japanese bulrush
# Experiment: Test Example 3: paddy pot test, application under submerged conditions
# Type: in vivo, Scirpus juncoides
# Details: active ingredient 500 g/ha; submerged application at 0.5 leaf stage; visually observed 14 days after application; 0 = non-treated, 100 = complete kill
# Outline: (§2)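 Visual growth-control rating (0 = untreated, 100 = complete kill) 14 days after treatment. The formulated compound, as a diluted wettable powder or emulsifiable concentrate, went into 3–4 cm flood water at a predetermined active-ingredient dose once the weeds reached 0.5 leaf stage (wapato: primary leaf stage).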
row,SMILES,Growth controlling degree (%) Japanese bulrush
1,COc1ccc(C=CC(=O)N(C)C(c2cnccc2C(F)(F)F)C(C)C)cc1 (centres unmarked) [I-182],98%

# System: japanese ribbon wapato
# Experiment: as above
# Type: in vivo, Sagittaria pygniaea
# Details: active ingredient 500 g/ha; submerged application at primary leaf stage; visually observed 14 days after application; 0 = non-treated, 100 = complete kill
# Outline: as §2
row,SMILES,Growth controlling degree (%) Japanese ribbon wapato
1,COc1ccc(C=CC(=O)N(C)C(c2cnccc2C(F)(F)F)C(C)C)cc1 (centres unmarked) [I-182],80%

# System: crabgrass
# Experiment: Test Example 2: soil surface treatment, upland pot test
# Type: in vivo, Digitaria sanguinalis L.
# Details: active ingredient 500 g/ha, observed 20th to 28th day
# Outline: (§3)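 Upland soil in pots of 1/170,000 ha is sown; on day 1 after sowing the formulated compound (wettable powder or emulsifiable concentrate, predetermined a.i. amount, water volume 1,500 L/ha) is applied to the soil surface with a small sprayer. Percent control is judged by eye 20–28 days later.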
row,SMILES,Growth controlling degree (%) Crabgrass
1,COc1ccc(C=CC(=O)N(C)C(c2cnccc2C(F)(F)F)C(C)C)cc1 (centres unmarked) [I-182],100%

# System: redroot pigweed
# Experiment: as above
# Type: in vivo, Amaranthus retroflexus L.
# Details: active ingredient 500 g/ha, observed 20th to 28th day
# Outline: as §3
row,SMILES,Growth controlling degree (%) Redroot pigweed
1,COc1ccc(C=CC(=O)N(C)C(c2cnccc2C(F)(F)F)C(C)C)cc1 (centres unmarked) [I-182],30%

# System: redroot pigweed
# Experiment: Test Example 1: foliage treatment, upland pot test
# Type: in vivo, Amaranthus retroflexus L.
# Details: active ingredient 500 g/ha, observed 18th to 23rd day, 0 = non-treated, 100 = complete kill
row,SMILES,Growth controlling degree (%) Redroot pigweed
1,COc1ccc(C=CC(=O)N(C)C(c2cnccc2C(F)(F)F)C(C)C)cc1 (centres unmarked) [I-182],50%

# System: barnyardgrass
# Experiment: Test Example 3: paddy pot test, application under submerged conditions
# Type: in vivo, Echinochloa crus-galli L.
# Details: active ingredient 500 g/ha; submerged application at 0.5 leaf stage; visually observed 14 days after application; 0 = non-treated, 100 = complete kill
# Outline: as §2
row,SMILES,Growth controlling degree (%) Barnyardgrass
1,COc1ccc(C=CC(=O)N(C)C(c2cnccc2C(F)(F)F)C(C)C)cc1 (centres unmarked) [I-182],100%

# System: rice (var. Nihonbare)
# Experiment: Test Example 3: paddy pot test, transplanted rice
# Type: in vivo, Oryza sativa L.
# Details: active ingredient 500 g/ha, applied 4th day after transplantation, visually observed 21st day after application, 0 = non-treated, 100 = complete kill
# Outline: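 Rice (var. Nihonbare) at 2 leaf stage transplanted 3 cm deep into puddled paddy soil under 3–4 cm flooding; on day 4 after transplanting, diluted wettable powder or emulsifiable concentrate applied by pipette under submerged conditions at a set active-ingredient dose. Growth scored visually 21 days after application, 0 (untreated) to 100 (complete kill) %.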
row,SMILES,Growth controlling degree (%) Rice
1,COc1ccc(C=CC(=O)N(C)C(c2cnccc2C(F)(F)F)C(C)C)cc1 (centres unmarked) [I-182],0%

# System: green foxtail
# Experiment: Test Example 1: foliage treatment, upland pot test
# Type: in vivo, Setaria viridis L.
# Details: active ingredient 500 g/ha, observed 18th to 23rd day, 0 = non-treated, 100 = complete kill
row,SMILES,Growth controlling degree (%) Green foxtail
1,COc1ccc(C=CC(=O)N(C)C(c2cnccc2C(F)(F)F)C(C)C)cc1 (centres unmarked) [I-182],50%

# System: barnyardgrass
# Experiment: Test Example 2: soil surface treatment, upland pot test
# Type: in vivo, Echinochloa crus-galli L.
# Details: active ingredient 500 g/ha, observed 20th to 28th day
# Outline: as §3
row,SMILES,Growth controlling degree (%) Barnyardgrass
1,COc1ccc(C=CC(=O)N(C)C(c2cnccc2C(F)(F)F)C(C)C)cc1 (centres unmarked) [I-182],90%

# System: corn
# Experiment: as above
# Type: in vivo, Zea mays L.
# Details: active ingredient 500 g/ha, observed 20th to 28th day
# Outline: as §3
row,SMILES,Growth controlling degree (%) Corn
1,COc1ccc(C=CC(=O)N(C)C(c2cnccc2C(F)(F)F)C(C)C)cc1 (centres unmarked) [I-182],10%

# System: rice
# Experiment: as above
# Type: in vivo, Oryza sativa L.
# Details: active ingredient 500 g/ha, observed 20th to 28th day
# Outline: as §3
row,SMILES,Growth controlling degree (%) Rice
1,COc1ccc(C=CC(=O)N(C)C(c2cnccc2C(F)(F)F)C(C)C)cc1 (centres unmarked) [I-182],50%

# System: soybean
# Experiment: Test Example 1: foliage treatment, upland pot test
# Type: in vivo, Glycine max Merr.
# Details: crop, active ingredient 500 g/ha, observed 18th to 23rd day, 0 = non-treated, 100 = complete kill
# Outline: as §1
row,SMILES,Growth controlling degree (%) Soybean
1,COc1ccc(C=CC(=O)N(C)C(c2cnccc2C(F)(F)F)C(C)C)cc1 (centres unmarked) [I-182],70%

# System: soybean
# Experiment: Test Example 2: soil surface treatment, upland pot test
# Type: in vivo, Glycine max Merr.
# Details: active ingredient 500 g/ha, observed 20th to 28th day
# Outline: as §3
row,SMILES,Growth controlling degree (%) Soyabean
1,COc1ccc(C=CC(=O)N(C)C(c2cnccc2C(F)(F)F)C(C)C)cc1 (centres unmarked) [I-182],10%

# System: green foxtail
# Experiment: as above
# Type: in vivo, Setaria viridis L.
# Details: active ingredient 500 g/ha, observed 20th to 28th day
# Outline: as §3
row,SMILES,Growth controlling degree (%) Green foxtail
1,COc1ccc(C=CC(=O)N(C)C(c2cnccc2C(F)(F)F)C(C)C)cc1 (centres unmarked) [I-182],95%

# System: velvetleaf
# Experiment: Test Example 1: foliage treatment, upland pot test
# Type: in vivo, Abutilon theophrasti MEDIC.
# Details: active ingredient 500 g/ha, observed 18th to 23rd day, 0 = non-treated, 100 = complete kill
row,SMILES,Growth controlling degree (%) Velvetleaf
1,COc1ccc(C=CC(=O)N(C)C(c2cnccc2C(F)(F)F)C(C)C)cc1 (centres unmarked) [I-182],50%

# System: barnyardgrass
# Experiment: Test Example 1: foliage treatment, upland pot test
# Type: in vivo, Echinochloa crus-galli L.
# Details: active ingredient 500 g/ha, observed 18th to 23rd day, 0 = non-treated, 100 = complete kill
# Outline: as §1
row,SMILES,Growth controlling degree (%) Barnyardgrass
1,COc1ccc(C=CC(=O)N(C)C(c2cnccc2C(F)(F)F)C(C)C)cc1 (centres unmarked) [I-182],80%

# System: velvetleaf
# Experiment: Test Example 2: soil surface treatment, upland pot test
# Type: in vivo, Abutilon theophrasti MEDIC.
# Details: active ingredient 500 g/ha, observed 20th to 28th day
# Outline: as §3
row,SMILES,Growth controlling degree (%) Velvetleaf
1,COc1ccc(C=CC(=O)N(C)C(c2cnccc2C(F)(F)F)C(C)C)cc1 (centres unmarked) [I-182],50%

# System: prickly sida
# Experiment: as above
# Type: in vivo, Sida spinosa L.
# Details: active ingredient 500 g/ha, observed 20th to 28th day
# Outline: as §3
row,SMILES,Growth controlling degree (%) Prickly sida
1,COc1ccc(C=CC(=O)N(C)C(c2cnccc2C(F)(F)F)C(C)C)cc1 (centres unmarked) [I-182],10%
